Results: paper PMC9860787, “Indene-Derived Hydrazides Targeting Acetylcholinesterase Enzyme in Alzheimer’s: Design, Synthesis, and Biological Evaluation” (Pharmaceutics, 2022)
“Also recorded” adds a separate entry of the source.

Columns and labels:
[1] = target: T1, hBuChE (Homo sapiens, UniProt P06276); test: biochemical; conditions: Ellman method, triplicate, three independent runs; read-out: IC50 ± SE hBuChE
T1 construct: PTCh (derived from human plasma); from tissue; host or cells: human plasma
Method: (§1) Enzyme activities were determined using the Ellman spectrophotometric method. Enzyme substrates acetylthiocholine iodide (ATCh) and propionylthiocholine iodide (PTCh) were purchased from Sigma-Aldrich, Steinheim, Germany, and thiole reagent 5.5′-dithiobis-2-nitrobenzoic acid (DTNB) from Sigma-Aldrich, St. Louis, MO, USA. Donpezil and were used as reference compounds (purchased from sigma);
(§2) In initial state, ATCh (derived from human erythrocytes) and PTCh (derived from human plasma) were dissolved in water and DTNB in 0.1 M sodium phosphate buffer (pH 7.4). Sulindac analogues were dissolved in water, and all further dilutions were made in water. Final concentrations of synthetics were in the range of 0.01–200 µM, while substrates were 1.0 mM and 4.0 mM for ATCh and PTCh, respectively. The final dilution of AChE and BChE was 500 and 300 times, respectively. Briefly, 50 µL of AChE (1.00 U mL^−1) or 50 µL of BuChE (0.6 U mL^−1) and 20 µL of the test or standard compounds were incubated in 96 well plates for 30 min at room temperature. […] The IC50 values were calculated using absorbance obtained from the test and standard compounds. The assays were performed in triplicate with three independent runs.

[2] = target: T2, hAChE (Homo sapiens, UniProt P22303); test: biochemical; conditions: for IC50: Ellman method, triplicate, three independent runs, read-out: IC50 ± SE hAChE; for Selectivity Ratio = (IC50 of BuChE)/(IC50 of AChE): BuChE over AChE
T2 construct: ATCh (derived from human erythrocytes); from tissue; host or cells: human erythrocytes
Method: as §1, §2

[3] = Antioxidant DPPH assay; conditions: for % Free Radicle Scavenging, Mean ± SE: DPPH; for antioxidant property (in words): DPPH assay, compared to ascorbic acid
Method: The assay was performed by previously mentioned protocol. […] The volume of solution was adjusted to 200 μL using methanol. The 96-well plate was incubated at 37 °C for 25 min on shaking water bath with moderate shaking. The absorbance of reaction mixture was measured at 520 nm wavelength. The reducing percentage (RP) of the DPPH was determined by the equation: RP=100 (A0−Ac)/A0 where A0 was the control or untreated DPPH absorbance, and Ac was the test treated DPPH absorbance. Ascorbic acid was used as the standard for the DPPH assay. The assay was performed in triplicate.

[4] = system: SH-SY5Y neuroblastoma cell lines; test: Cell line-based toxicity study, MTT assay; conditions: 72 h
Method: The toxicity of compound SD-30 was evaluated against SH-SY5Y neuroblastoma cell lines by the MTT assay according to the literature procedure with minor modifications. Briefly, the cell lines (density 1 × 10^5 cells/wells) were plated in 96 well plates and incubated for 24 h at 37 °C in CO2 incubator. Various concentrations of SD-30 ([…]) were added, and cells were incubated for 72 h. After that, […] of MTT reagent was added, and the cells were incubated for an additional 2 h. The obtained purple colored formazan crystals were solubilized in […] DMSO. The absorbance was measured at 570 nm, and the % cell viability was calculated. Each treatment was executed in triplicate and data are presented as percentage of the control.
Generally, in vitro cell line studies have been routinely used as these can be helpful in primary optimization and mechanistic investigations before animal-based toxicology studies. The evaluation of the neuroprotection effect of compound SD-30 ([…]) on human neuroblastoma SH-SY5Y cell lines was assessed through MTT (3-(4,5-dimethylthiazol-2-yl)-2,5- diphenyl tetrazolium bromide) assay This cell line is often used in AD due to its human origin and ease of maintenance.

[5] = target: AChE induced Aβ 1-42 aggregation (Homo sapiens, UniProt P22303); assay type: biochemical; conditions: 10 and 20 µM, ThT, 48 h incubation
Method: Thioflavin T (ThT) assay was performed to determine the inhibition potential of SD-30 against AChE induced Aβ 1-42 aggregation. Aβ 1-42, purchased from Sigma, dissolved in the 10 mM phosphate buffer (PBS) of pH 7.5 to get a stock concentration of […]. The test compounds were dissolved in distilled water and further diluted with PBS. Different proportions of the Aβ 1-42: Inhibitor (1:0.5, 1:10, 1:20) were used in the ThT assay. […] The mixtures were incubated at room temperature for 48 h in the dark. […] The ThT assay was performed in triplicate and in three independent runs.

T2 sequence (P22303 other isoform, or with tags, fused parts or gaps): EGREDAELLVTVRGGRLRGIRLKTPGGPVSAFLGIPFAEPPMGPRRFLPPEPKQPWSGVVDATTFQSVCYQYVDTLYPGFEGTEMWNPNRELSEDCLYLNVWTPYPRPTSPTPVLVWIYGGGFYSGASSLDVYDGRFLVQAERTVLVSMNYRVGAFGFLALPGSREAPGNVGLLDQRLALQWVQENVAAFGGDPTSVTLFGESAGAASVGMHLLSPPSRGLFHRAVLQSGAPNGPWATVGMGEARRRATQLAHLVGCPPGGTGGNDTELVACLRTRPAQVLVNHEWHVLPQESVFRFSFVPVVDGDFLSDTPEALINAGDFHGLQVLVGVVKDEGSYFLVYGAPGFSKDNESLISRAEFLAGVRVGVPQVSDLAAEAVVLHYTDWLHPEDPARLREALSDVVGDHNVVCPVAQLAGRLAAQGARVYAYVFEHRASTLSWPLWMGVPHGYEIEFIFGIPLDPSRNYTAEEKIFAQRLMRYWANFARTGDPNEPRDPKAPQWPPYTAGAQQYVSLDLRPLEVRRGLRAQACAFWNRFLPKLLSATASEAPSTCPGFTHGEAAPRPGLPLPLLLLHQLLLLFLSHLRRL
Sequence of AChE induced Aβ 1-42 aggregation (P22303 32-614): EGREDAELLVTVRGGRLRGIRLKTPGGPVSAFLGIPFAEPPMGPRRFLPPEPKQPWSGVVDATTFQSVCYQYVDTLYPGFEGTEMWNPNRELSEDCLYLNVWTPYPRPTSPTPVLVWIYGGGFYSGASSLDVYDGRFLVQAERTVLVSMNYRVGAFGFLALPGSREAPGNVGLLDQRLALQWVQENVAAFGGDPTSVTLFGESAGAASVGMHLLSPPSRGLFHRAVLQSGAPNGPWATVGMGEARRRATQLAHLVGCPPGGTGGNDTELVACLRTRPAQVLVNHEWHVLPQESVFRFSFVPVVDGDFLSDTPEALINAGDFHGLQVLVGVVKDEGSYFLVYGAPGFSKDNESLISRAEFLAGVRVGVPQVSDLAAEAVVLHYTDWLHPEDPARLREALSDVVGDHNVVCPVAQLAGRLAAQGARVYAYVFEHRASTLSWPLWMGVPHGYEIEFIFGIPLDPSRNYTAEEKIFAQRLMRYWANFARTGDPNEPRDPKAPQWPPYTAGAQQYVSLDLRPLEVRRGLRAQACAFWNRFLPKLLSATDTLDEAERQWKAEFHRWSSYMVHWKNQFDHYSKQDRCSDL

Structure (SMILES) | IC50 [1] [µM] | IC50 [2] [µM] | % Free Radicle Scavenging, Mean ± SE ([3]; 50 µM) [%] | % Free Radicle Scavenging, Mean ± SE ([3]; 100 µM) [%] | Selectivity Ratio = (IC50 of BuChE)/(IC50 of AChE) [2] | antioxidant property (in words) [3] | concentration up to which no significant toxicity / cytotoxicity was observed [4] | effect on AChE-induced Aβ1-42 aggregation (in words) [5]
COc1ccccc1C=NNC(=O)CC1=C(C)C(=Cc2ccc([S+](C)[O-])cc2)c2ccc(F)cc21 (stereo in doubt) [SD-31, 2-(5-fluoro-2-methyl-1-((E)-4-(methylsulfinyl)benzylidene)-1H-inden-3-yl)-N’-((E)-2-methoxybenzylidene) acetohydrazide] | > 1000 | 733.16 ± 0.143 | 12.24 ± 0.222 | 39.39 ± 0.860 |  |  |  | 
COc1cccc(C=NNC(=O)CC2=C(C)C(=Cc3ccc([S+](C)[O-])cc3)c3ccc(F)cc32)c1 (stereo in doubt) [SD-25, 2-(5-fluoro-2-methyl-1-((E)-4-(methylsulfinyl)benzylidene)-1H-inden-3-yl)-N’-((E)-3-methoxybenzylidene) acetohydrazide] | > 1000 | > 1000 | 14.00 ± 0.345 | 40.95 ± 1.101 |  |  |  | 
CC1=C(CC(=O)NN=Cc2cccc(O)c2O)c2cc(F)ccc2/C1=C\c1ccc([S+](C)[O-])cc1 (centres unmarked) [SD-42] | 264.33 ± 0.068 | 92.44 ± 0.106 | 30.43 ± 0.299 | 64.98 ± 1.071 | 2.86 | reasonable antioxidant property |  | 
CC1=C(CC(=O)NN=Cc2ccc(O)cc2)c2cc(F)ccc2C1=Cc1ccc([S+](C)[O-])cc1 (stereo in doubt) [SD-30, 2-(5-fluoro-2-methyl-1-((E)-4-(methylsulfinyl)benzylidene)-1H-inden-3-yl)-N’-((E)-4-hydroxybenzylidene)acetohydrazide] | 48.55 ± 0.136 | 13.9 ± 0.163 | 17.37 ± 0.988 | 45.39 ± 1.036 | 3.50 | reasonable antioxidant properties; also recorded: reasonable antioxidant property | up to 30 mM | effectively inhibited AChE-induced Aβ aggregation; also recorded: effective on Aβ1-42 aggregation; also recorded: concentration-dependent decrease in the Aβ aggregation
O=C1O[C@H]([C@@H](O)CO)C(O)=C1O [Ascorbic acid, reference compound] |  |  | 42.66 ± 1.491 | 76.76 ± 0.708 |  |  |  | 
CC1=C(CC(=O)NN=Cc2c(O)cccc2O)c2cc(F)ccc2/C1=C\c1ccc([S+](C)[O-])cc1 (centres unmarked) [SD-40] | 286.01 ± 0.143 | 108.9 ± 0.142 | 28.67 ± 0.422 | 63.42 ± 0.831 | 2.63 |  |  | 
CC1=C(CC(=O)NN=Cc2cccc(O)c2)c2cc(F)ccc2C1=Cc1ccc([S+](C)[O-])cc1 (stereo in doubt) [SD-24, 2-(5-fluoro-2-methyl-1-((E)-4-(methylsulfinyl)benzylidene)-1H-inden-3-yl)-N’-((E)-3-hydroxybenzylidene)acetohydrazide] | 92.86 ± 0.066 | 40.43 ± 0.067 | 17.68 ± 0.478 | 43.61 ± 0.983 | 2.30 | reasonable antioxidant property |  | 
